pIC50: −log10 of the molar value.
What was measured:
mice = tested on: mice; parameters: method as in Maianti et al, Nature 2014; settings: ref Maianti et al, Nature 2014, cited from earlier work
hIDE [1] = target: T1, hIDE (Homo sapiens, UniProt P14735); assay: In vitro hIDE inhibition of Aβ16–23-based substrate hydrolysis; type: biochemical; settings: for inhibition at 100 µM: 100 µM (footnote c)
T1 construct: made in house
T1 sequence (P14735 1-1019): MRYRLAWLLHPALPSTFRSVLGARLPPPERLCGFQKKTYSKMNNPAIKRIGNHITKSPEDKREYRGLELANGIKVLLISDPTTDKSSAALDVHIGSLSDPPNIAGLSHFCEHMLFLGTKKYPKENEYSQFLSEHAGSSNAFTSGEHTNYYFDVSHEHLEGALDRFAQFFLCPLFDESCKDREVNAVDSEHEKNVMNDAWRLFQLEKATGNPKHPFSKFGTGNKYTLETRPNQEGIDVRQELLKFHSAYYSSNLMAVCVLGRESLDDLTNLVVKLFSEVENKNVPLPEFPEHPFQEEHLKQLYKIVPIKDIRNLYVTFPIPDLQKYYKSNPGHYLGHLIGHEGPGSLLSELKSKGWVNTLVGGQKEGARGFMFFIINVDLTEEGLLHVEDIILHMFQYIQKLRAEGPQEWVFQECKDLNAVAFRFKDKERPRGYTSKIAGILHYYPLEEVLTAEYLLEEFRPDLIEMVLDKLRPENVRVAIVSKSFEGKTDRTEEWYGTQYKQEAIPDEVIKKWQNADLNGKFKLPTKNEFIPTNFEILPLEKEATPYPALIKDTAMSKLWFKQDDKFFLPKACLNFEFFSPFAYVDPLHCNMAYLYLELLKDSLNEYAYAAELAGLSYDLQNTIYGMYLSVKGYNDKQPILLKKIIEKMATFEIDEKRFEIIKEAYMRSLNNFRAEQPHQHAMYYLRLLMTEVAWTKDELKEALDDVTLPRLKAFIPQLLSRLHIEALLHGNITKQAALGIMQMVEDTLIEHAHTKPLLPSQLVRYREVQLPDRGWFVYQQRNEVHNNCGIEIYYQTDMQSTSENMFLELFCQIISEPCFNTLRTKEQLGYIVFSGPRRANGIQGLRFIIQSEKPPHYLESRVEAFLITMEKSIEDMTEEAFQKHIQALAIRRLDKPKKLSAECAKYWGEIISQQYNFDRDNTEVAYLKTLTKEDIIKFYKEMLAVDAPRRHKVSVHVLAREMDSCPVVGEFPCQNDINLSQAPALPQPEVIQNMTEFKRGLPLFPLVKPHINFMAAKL
Procedure: In vitro IDE activity was measured with a quenched substrate […]. Human recombinant IDE was cloned and purified as previously described. […] All measurements were carried out as 8-point dose response curves and reported as the average of at least three independent measurements. […] Data analysis was performed using Xlfit v 5.0 and GraphPad Prism v 4.0. Nonlinear curve fitting and statistical analysis was done using built-in functions.

hIDE [2] = target: T1, hIDE; assay: In vitro hIDE inhibition of insulin hydrolysis; type: biochemical; settings: for pIC50: full insulin substrate, value (CI 95%), mean of 3 to 10 experiments, read-out: IC50 insulin hydrolysis
Procedure: The enzymatic activity of hIDE was assayed quantifying the amount of insulin (Actrapid) at the end of the reaction. The quantity of insulin was determined using a Luminex kit (HMHMAG-34K, Millipore). 20 μl of WT IDE in Hepes buffer (50 mM with 100 mM NaCl, pH 7.4) at 1 μg ml^−1 were pre-incubated 10 min at ambient temperature with 20 μl of test compound or vehicle in 96-well microtiter plates (dark, non-binding surface). The reaction was then started by the addition of 40 μl of insulin at 40 nM. The final concentration of hIDE and substrate was 0.25 μg ml^−1 and 20 nM, respectively. Incubations were performed at ambient temperature for 10 min. The reaction was then stopped by addition of 80 μl of 200 mM EDTA. The samples were diluted by a factor of 3, and 15 μl were transferred to 96-well microtiter plates (dark, clear bottom, non-binding surface) containing 15 μl of assay buffer (from Luminex Kit). Fifteen microlitre of insulin magnetic beads were added. Incubation was performed during 16–18 h at 4 °C under agitation. Wells were washed three times and 30 μl of hormone panel antibodies were added. The samples were incubated 30 min at ambient temperature under agitation. 30 μl of strepdavidin-phycoerythrin were added. Incubation was performed 30 min at ambient temperature under agitation. Wells were washed three times and 80 μl of drive fluid were added. The plate was then read with the MagPix apparatus. Data analysis was performed using Xlfit v 5.0 and GraphPad Prism v 4.0. Nonlinear curve fitting and statistical analysis was done using equation 1: […]
where A is minimum value of y; B is range of y; C is the IC50 value and D is slope factor.

[3] = tested on: human SY5Y neuroblastoma cells; assay: Aβ1–40 secretion by differentiated SH-SY5Y cells (ELISA); type: cell-based; settings: 10 μM and 30 μM, 48 h
Procedure: The human neuroblastoma cell lines SH-SY5Y were provided from ATCC (cat. no. crl2266) with a Certificate of Analysis and not checked in the lab for mycoplasma contamination. […] SH-SY5Y were seeded in a 96-well plate at 200,000 cells per cm^2. […] Differentiated cells were then incubated with compounds at 10 μM and 30 μM in presence of 0.1% DMSO.

hIDE [4] = target: T1, hIDE; assay: 19F NMR ligand-observed interaction with the enzyme; type: binding; settings: 5 μM enzyme
Procedure: […] The carrier frequency was set at −100 p.p.m. with a spectral window of 40 ppm, and 4,024 scans were recorded per sample, except for the 6.25 μM sample for which 12,288 scans were recorded.

Row | SMILES | pIC50 (hIDE [1]) | pIC50 (hIDE [2]) | further results
1 | NCCCC[C@@H]1NC(=O)/C=C/C(=O)N[C@H](C(N)=O)CCCCNC(=O)[C@@H](Cc2ccc(C(=O)c3ccccc3)cc2)NC(=O)[C@H](CC2CCCCC2)NC1=O [6bK] |  |  | glucose tolerance in OGTT, 6bK (mice; IDE dependant, GLP-1 dependant, insulin driven): Improves glucose tolerance in OGTT; glucose tolerance in IPGTT, 6bK (mice; IDE dependant): Impairs glucose tolerance in IPGTT; gluconeogenesis in a pyruvate tolerance test, 6bK (mice): Lowers gluconeogenesis; insulin action in vivo (ITT), 6bK (mice): Augments insulin action in vivo
2 | O=C(C[C@@H](Cc1ccc2ccccc2c1)n1cc(CNC(=O)c2ccccc2)nn1)NO [Compound 2] | 6.15 | 6.29 | melting point: 192.8 to 194 °C
3 | Cc1ccc(C(=O)NCc2cn([C@@H](CC(=O)NO)Cc3ccc4ccccc4c3)nn2)cc1 [Compound 3] | 5.57 | 5.17 | melting point: 181.7 to 182.6 °C
4 | COc1ccc(C(=O)NCc2cn([C@@H](CC(=O)NO)Cc3ccc4ccccc4c3)nn2)cc1 [Compound 4] | 5.35 | 5.47 | melting point: 178.3 to 179.6 °C
5 | O=C(C[C@@H](Cc1ccc2ccccc2c1)n1cc(CNC(=O)C2CCCCC2)nn1)NO [Compound 5] | 6.10 | 6.36 | melting point: 176.6 to 177.9 °C
6 | O=C(C[C@@H](Cc1ccc2ccccc2c1)n1cc(CNC(=O)Cc2ccccc2)nn1)NO [Compound 6] | 5.49 | 6.13 | 
7 | Cc1ccc(CC(=O)NCc2cn([C@@H](CC(=O)NO)Cc3ccc4ccccc4c3)nn2)cc1 [Compound 7] | 4.92 | 5.64 | 
8 | O=C(C[C@@H](Cc1ccc2ccccc2c1)n1cc(CNS(=O)(=O)c2ccc(F)cc2)nn1)NO [Compound 9] | 5.24 | 5.22 | melting point: 157.1 to 158.7 °C
9 | Cc1ccc(C(=O)NCc2cn(C(CC(=O)NO)Cc3ccccc3)nn2)cc1 (centres unmarked) [Compound 10] | < 4.00 | 5.21 | Aβ1–40 in culture supernatants [3]: had no effect; inhibition at 100 µM (hIDE [1]): < 10%; fold less active than 1 against purified IDE (hIDE [2]; relative to compound 1): 100 fold
10 | O=C(CC(Cc1ccc2ccccc2c1)c1nc(CNC(=O)c2ccccc2)no1)NO (centres unmarked) [Compound 11] | 4.13 | 5.02 | 
11 | O=C(C[C@@H](Cc1ccc2ccccc2c1)c1nc(CNC(=O)c2ccc(F)cc2)no1)NO [Compound 12] | 4.54 | 5.19 | 
12 | O=C(O)C[C@@H](Cc1ccc2ccccc2c1)n1cc(CNC(=O)c2ccc(F)cc2)nn1 [Compound 14] | < 4.00 | 4.52 | 
13 | O=C(C[C@H](Cc1ccc2ccccc2c1)n1cc(CNC(=O)c2ccc(F)cc2)nn1)NO [Compound 15] | 5.55 | 5.70 | 
14 | O=C(C[C@@H](Cc1ccc2ccccc2c1)n1nncc1CNC(=O)c1ccc(F)cc1)NO [Compound 16] | < 4.00 | 4.92 | inhibition at 100 µM (hIDE [1]): < 10%; 19F NMR signal in the presence of enzyme at 2:1 or 1:1 compound:enzyme ratio (hIDE [4]): signal intensity remains detectable
15 | O=C(C[C@@H](Cc1ccc2ccccc2c1)n1nncc1CNC(=O)C1CCCCC1)NO [Compound 17] | < 4.00 | 4.52 | inhibition at 100 µM (hIDE [1]): < 10%
16 | O=C(CC(Cc1ccccc1)n1cc(CNC(=O)c2ccc(F)cc2)nn1)NO (centres unmarked) [Compound 19] | 4.10 | < 4.00 | inhibition at 300 µM (hIDE [2]; 300 µM (footnote d)): 50%
17 | O=C(O)CN(CCN(CC(=O)O)CC(=O)O)CC(=O)O [EDTA, reference compound] |  |  | inhibition of IDE by reference inhibitor (hIDE [1]; 2 mM): 100%

— article PMC4580987, “Catalytic site inhibition of insulin-degrading enzyme by a small molecule induces glucose intolerance in mice” (Nature Communications, 2015)
